Starred links: 1 amine or outer side, 2 acyl side, 3 side chain; linkers in the order of their positions; H or OH if unused. Positions of bridges follow the written chain, without caps; N, C: chain ends. Non-standard residues stand in square brackets, D forms with d. Residues, ends and D or L forms follow the SMILES beside them. Groups on a side chain read outwards from the residue. *: point of attachment. Ala(1H-tetrazol-5-yl) = N[C@@H](Cc1nnn[nH]1)C(=O)O; Phe(3,4-Cl2) = N[C@@H](Cc1ccc(Cl)c(Cl)c1)C(=O)O; Phe(2,4-Cl2) = N[C@@H](Cc1ccc(Cl)cc1Cl)C(=O)O; Phe(3,5-F2) = N[C@@H](Cc1cc(F)cc(F)c1)C(=O)O; C18 diacid = O=C(O)CCCCCCCCCCCCCCCCC(=O)*; Dip = N[C@H](C(=O)O)C(c1ccccc1)c1ccccc1; γGlu = O=C(O)[C@H](CCC(=O)[*:2])N[*:1]; β3hF = N[C@H](CC(=O)O)Cc1ccccc1; Isovaleryl = CC(C)CC(=O)*; AEEA = NCCOCCOCC(=O)O

In the first assay the target is T1, ferroportin (Homo sapiens, UniProt Q9NP59).
T1 sequence (Q9NP59 1-571): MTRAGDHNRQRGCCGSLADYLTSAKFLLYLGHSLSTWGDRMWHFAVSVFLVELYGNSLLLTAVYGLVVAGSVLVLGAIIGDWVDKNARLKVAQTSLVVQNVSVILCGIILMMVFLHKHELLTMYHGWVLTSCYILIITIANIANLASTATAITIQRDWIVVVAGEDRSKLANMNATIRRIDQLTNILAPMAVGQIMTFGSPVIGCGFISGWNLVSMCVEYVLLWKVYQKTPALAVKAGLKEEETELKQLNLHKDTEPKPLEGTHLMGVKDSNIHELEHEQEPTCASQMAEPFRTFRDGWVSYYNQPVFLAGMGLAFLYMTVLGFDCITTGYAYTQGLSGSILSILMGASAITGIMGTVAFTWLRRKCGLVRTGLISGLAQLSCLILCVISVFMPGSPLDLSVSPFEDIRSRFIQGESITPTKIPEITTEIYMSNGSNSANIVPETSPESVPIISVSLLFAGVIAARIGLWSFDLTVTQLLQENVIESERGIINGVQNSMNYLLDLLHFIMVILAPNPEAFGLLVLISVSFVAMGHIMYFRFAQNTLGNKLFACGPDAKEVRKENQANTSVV
Description: FPN activity assay: internalization/degradation of ferroportin-GFP in stably transfected HEK293 cells, decrease in GFP fluorescence. Format: cell-based. Also on record: expressed in transfected cells. Particulars: HEK293 cells stably expressing ferroportin-GFP, at least 18 hours incubation; read-out: FPN EC50.
In the case of `CCCC(=O)N[C@@H](Cc1nn[nH]n1)C(=O)N[C@H](C(=O)N[C@@H](Cc1c[nH]cn1)C(=O)N[C@H](C(=O)N1CCC[C@H]1C(=O)N[C@H]1CSSC[C@@H](C(N)=O)NC(=O)[C@@H](CCCCN)NC(=O)C[C@H](Cc2ccccc2)NC(=O)[C@H](CCCCNC(=O)COCCOCCNC(=O)COCCOCCNC(=O)CC[C@H](NC(=O)CCCCCCCCCCCCCCCCC(=O)O)C(=O)O)NC(=O)[C@H]([C@@H](C)CC)NC1=O)C(c1ccccc1)c1ccccc1)[C@@H](C)O` [Compd 49, Butyric_Acid-[Tet1]-T-H-[Dpa]-P-[Cys]-I-[Lys(1PEG2_1PEG2_IsoGlu_C18_Diacid)]-[bhPhe]-[(D)Lys]-[Cys]-NH2], the DC50 lay in the range of 10 to 100 nM.

For the compound `CC[C@H](C)[C@@H]1NC(=O)[C@@H](NC(=O)[C@@H]2CCCN2C(=O)[C@@H](NC(=O)[C@H](Cc2cnc[nH]2)NC(=O)[C@@H](NC(=O)[C@H](CC2N=NN=N2)NC(=O)c2ccccc2)[C@@H](C)O)C(c2ccccc2)c2ccccc2)CSSC[C@@H](C(N)=O)NC(=O)[C@@H](CCCCN)NC(=O)C[C@H](Cc2ccccc2)NC(=O)[C@H](CCCCNC(=O)COCCOCCNC(=O)COCCOCCNC(=O)CC[C@H](NC(=O)CCCCCCCCCCCCCCCCC(=O)O)C(=O)O)NC1=O` [Compd 42, Benzyl-[Tet1]-T-H-[Dpa]-P-[Cys]-I-[Lys(1PEG2_1PEG2_IsoGlu_C18_Diacid)]-[bhPhe]-[(D)Lys]-[Cys]-NH2], the DC50 is 10 to 100 nM. For `CC[C@H](C)[C@@H]1NC(=O)[C@@H](NC(=O)[C@@H]2CCCN2C(=O)[C@@H](NC(=O)[C@H](Cc2c[nH]cn2)NC(=O)[C@@H](NC(=O)[C@H](Cc2nn[nH]n2)NC(=O)CC(C)C)[C@@H](C)O)C(c2ccccc2)c2ccccc2)CSSC[C@@H](C(=O)O)NC(=O)C[C@H](Cc2ccccc2)NC(=O)[C@H](CCCCNC(=O)COCCOCCNC(=O)COCCOCCNC(=O)CC[C@H](NC(=O)CCCCCCCCCCCCCCCCC(=O)O)C(=O)O)NC1=O` [Compd 37, Isovaleric Acid-[Tet1]-T-H-[Dpa]-P-[Cys]-I-[Lys(1PEG2_1PEG2_IsoGlu_C18_Diacid)]-[bhPhe]-[Cys]] (Isovaleryl-[Ala(1H-tetrazol-5-yl)]TH[Dip]PCIK([AEEA-AEEA-γGlu-C18 diacid])[β3hF]C-OH; disulfide 6-10; C-terminus assumed), the DC50 was more than 500 nM. As to `CC[C@H](C)[C@@H]1NC(=O)[C@@H](NC(=O)[C@@H]2CCCN2C(=O)[C@H](Cc2ccc(Cl)c(Cl)c2)NC(=O)[C@H](Cc2c[nH]cn2)NC(=O)[C@@H](NC(=O)[C@H](Cc2nn[nH]n2)NC(=O)CC(C)C)[C@@H](C)O)CSSC[C@@H](C(N)=O)NC(=O)[C@@H](CCCCN)NC(=O)C[C@H](Cc2ccccc2)NC(=O)[C@H](CCCCNC(=O)COCCOCCNC(=O)COCCOCCNC(=O)CC[C@H](NC(=O)CCCCCCCCCCCCCCCCC(=O)O)C(=O)O)NC1=O` [Compd 25, Isovaleric Acid-[Tet1]-T-H-[Phe_34diCl]-P-[Cys]-I-[Lys(1PEG2_1PEG2_IsoGlu_C18_Diacid)]-[bhPhe]-[(D)Lys]-[Cys]-NH2] (Isovaleryl-[Ala(1H-tetrazol-5-yl)]TH[Phe(3,4-Cl2)]PCIK([AEEA-AEEA-γGlu-C18 diacid])[β3hF][dK]C-NH2; disulfide 6-11), the DC50 lay within 100 to 500 nM. Consider `CC[C@H](C)[C@@H]1NC(=O)[C@@H](NC(=O)[C@@H]2CCCN2C(=O)[C@H](Cc2cc(F)cc(F)c2)NC(=O)[C@H](Cc2c[nH]cn2)NC(=O)[C@@H](NC(=O)[C@H](Cc2nn[nH]n2)NC(=O)CC(C)C)[C@@H](C)O)CSSC[C@@H](C(N)=O)NC(=O)[C@@H](CCCCN)NC(=O)C[C@H](Cc2ccccc2)NC(=O)[C@H](CCCCNC(=O)COCCOCCNC(=O)COCCOCCNC(=O)CC[C@H](NC(=O)CCCCCCCCCCCCCCCCC(=O)O)C(=O)O)NC1=O` [Compd 19, Isovaleric Acid-[Tet1]-T-H-[Phe_35diF]-P-[Cys]-I-[Lys(1PEG2_1PEG2_IsoGlu_C18_Diacid)]-[bhPhe]-[(D)Lys]-[Cys]-NH2] (Isovaleryl-[Ala(1H-tetrazol-5-yl)]TH[Phe(3,5-F2)]PCIK([AEEA-AEEA-γGlu-C18 diacid])[β3hF][dK]C-NH2; disulfide 6-11), for which the DC50 fell in the range of 100 to 500 nM. Take `CC[C@H](C)[C@@H]1NC(=O)[C@@H](NC(=O)[C@@H]2CCCN2C(=O)[C@H](Cc2ccccc2)NC(=O)[C@H](Cc2c[nH]cn2)NC(=O)[C@@H](NC(=O)[C@H](Cc2nn[nH]n2)NC(=O)CC(C)C)[C@@H](C)O)CSSC[C@@H](C(=O)N[C@@H](CCCCN)C(N)=O)NC(=O)CNC(=O)[C@H](CCCCN)NC(=O)[C@H](CO)NC(=O)[C@H](CCCNC(=N)N)NC(=O)[C@@H]2CCCN2C(=O)[C@H](CCC(=O)O)NC(=O)[C@H](Cc2ccccc2)NC(=O)[C@H](CCCCNC(=O)COCCOCCNC(=O)COCCOCCNC(=O)CC[C@H](NC(=O)CCCCCCCCCCCCCCCCC(=O)O)C(=O)O)NC1=O` [Compd 3, Isovaleric Acid-[Tet1]-T-H-F-P-[Cys]-I-[Lys(1PEG2_1PEG2_IsoGlu_C18_Diacid)]-F-E-P-R-S-K-G-[Cys]-K-NH2] (Isovaleryl-[Ala(1H-tetrazol-5-yl)]THFPCIK([AEEA-AEEA-γGlu-C18 diacid])FEPRSKGCK-NH2; disulfide 6-16): the DC50 lay within 10 to 100 nM. For `CC[C@H](C)[C@@H]1NC(=O)[C@@H](NC(=O)[C@@H]2CCCN2C(=O)[C@H](Cc2ccc(Cl)cc2Cl)NC(=O)[C@H](Cc2c[nH]cn2)NC(=O)[C@@H](NC(=O)[C@H](Cc2nn[nH]n2)NC(=O)CC(C)C)[C@@H](C)O)CSSC[C@@H](C(N)=O)NC(=O)[C@@H](CCCCN)NC(=O)C[C@H](Cc2ccccc2)NC(=O)[C@H](CCCCNC(=O)COCCOCCNC(=O)COCCOCCNC(=O)CC[C@H](NC(=O)CCCCCCCCCCCCCCCCC(=O)O)C(=O)O)NC1=O` [Compd 26, Isovaleric Acid-[Tet1]-T-H-[Phe_24diCl]-P-[Cys]-I-[Lys(1PEG2_1PEG2_IsoGlu_C18_Diacid)]-[bhPhe]-[(D)Lys]-[Cys]-NH2] (Isovaleryl-[Ala(1H-tetrazol-5-yl)]TH[Phe(2,4-Cl2)]PCIK([AEEA-AEEA-γGlu-C18 diacid])[β3hF][dK]C-NH2; disulfide 6-11), the DC50 was in the range of 100 to 500 nM.

For the compound `CCCCCCCCCCCCCCCC(=O)NCCOCCOCCOCCOCCOCCOCCOCCOCCOCCOCCOCCOCCC(=O)NCCCC[C@@H]1NC(=O)[C@H](Cc2ccccc2)NC(=O)[C@H](CCCCN)NC(=O)[C@H]([C@@H](C)CC)NC(=O)[C@@H](NC(=O)[C@@H]2CCCN2C(=O)[C@H](Cc2ccccc2)NC(=O)[C@H](Cc2c[nH]cn2)NC(=O)[C@@H](NC(=O)[C@H](CC(=O)O)NC(=O)CC(C)C)[C@@H](C)O)CSSC[C@@H](C(=O)N[C@@H](CCCCN)C(N)=O)NC(=O)CNC(=O)[C@H](CCCCN)NC(=O)[C@H](CO)NC(=O)[C@H](CCCNC(=N)N)NC(=O)[C@@H]2CCCN2C1=O` [compound 1, reference compound], the DC50 fell in the range of 10 to 100 nM. On to `CC[C@H](C)[C@@H]1NC(=O)[C@@H](NC(=O)[C@@H]2CCCN2C(=O)[C@@H](NC(=O)[C@H](Cc2c[nH]cn2)NC(=O)[C@@H](NC(=O)[C@H](Cc2nn[nH]n2)NC(=O)CCCN)[C@@H](C)O)C(c2ccccc2)c2ccccc2)CSSC[C@@H](C(N)=O)NC(=O)[C@@H](CCCCN)NC(=O)C[C@H](Cc2ccccc2)NC(=O)[C@H](CCCCNC(=O)COCCOCCNC(=O)COCCOCCNC(=O)CC[C@H](NC(=O)CCCCCCCCCCCCCCCCC(=O)O)C(=O)O)NC1=O` [Compd 38, Gaba-[Tet1]-T-H-[Dpa]-P-[Cys]-I-[Lys(1PEG2_1PEG2_IsoGlu_C18_Diacid)]-[bhPhe]-[(D)Lys]-[Cys]-NH2], for which the DC50 was more than 500 nM. Still for that read-out and setting: to `CC[C@H](C)[C@@H]1NC(=O)[C@@H](NC(=O)[C@@H]2CCCN2C(=O)[C@@H](NC(=O)[C@H](Cc2c[nH]cn2)NC(=O)[C@@H](NC(=O)[C@H](Cc2nn[nH]n2)NC(=O)CCCCN)[C@@H](C)O)C(c2ccccc2)c2ccccc2)CSSC[C@@H](C(N)=O)NC(=O)[C@@H](CCCCN)NC(=O)C[C@H](Cc2ccccc2)NC(=O)[C@H](CCCCNC(=O)COCCOCCNC(=O)COCCOCCNC(=O)CC[C@H](NC(=O)CCCCCCCCCCCCCCCCC(=O)O)C(=O)O)NC1=O` [Compd 39, 5 AminoPentanoicAcid-[Tet1]-T-H-[Dpa]-P-[Cys]-I-[Lys(1PEG2_1PEG2_IsoGlu_C18_Diacid)]-[bhPhe]-[(D)Lys]-[Cys]-NH2] belongs more than 500 nM.

For a further assay, the target named is T1, ferroportin. Put plainly: T47D cell-based ferroportin internalization assay in presence of 0.5% mouse serum albumin (MSA), AF647-conjugated detection peptide, flow cytometry. Particulars: T47D cells, 1 hr incubation. Also noted: a human breast carcinoma adherent cell line which endogenously expresses ferroportin; host or cells: T47D. The protocol: The potency of the peptides in causing ferroportin internalization was evaluated in a T47D cell-based assay. […] In this internalization assay, the potency of the test peptides was evaluated in presence of serum albumin which is the main protein component in the blood. T47D cells were maintained in RPMI media (containing required amount of fetal bovine serum) and regularly sub-cultured. In preparation for the assay, the cells were seeded in 96-well plates at a density of 80-100 k cells per well in 100 ul volume and allowed to rest overnight. On the next day, test peptides were first prepared in dilution series (10-point series, starting concentration of ˜5 μM, typically 3-4×fold dilution steps), all with 0.5% mouse serum albumin (MSA purified from mouse serum; Sigma, A3139). The test peptide dilution series were allowed to incubate at room temperature for 30 min. Then the media was aspirated from the 96-well cell plate and test peptide dilution series were added. After 1 hr incubation, the media with test peptides was aspirated out and AF647-conjugated detection peptide was added at fixed concentration of 200 nM. The AF647-conjugated detection peptide was previously verified to bind to ferroportin and cause its internalization. The cells were washed again after a 2 hr incubation in preparation for flow cytometry analysis. The Median Fluorescence Intensity (MFI) of the AF647-positive population was measured (after removing dead cells and non-singlets from the analysis). The MFI values were used to generate a dose-response curve and obtain IC50 potencies for the test peptides. The IC50 potencies were calculated by using 4-parameter non-linear fitting function in Graphpad Prism (Table 2A).
Broadly, the IC50 is the concentration that gives 50% inhibition. Take `CCCC(=O)N[C@@H](Cc1nn[nH]n1)C(=O)N[C@H](C(=O)N[C@@H](Cc1c[nH]cn1)C(=O)N[C@H](C(=O)N1CCC[C@H]1C(=O)N[C@H]1CSSC[C@@H](C(N)=O)NC(=O)[C@@H](CCCCN)NC(=O)C[C@H](Cc2ccccc2)NC(=O)[C@H](CCCCNC(=O)COCCOCCNC(=O)COCCOCCNC(=O)CC[C@H](NC(=O)CCCCCCCCCCCCCCCCC(=O)O)C(=O)O)NC(=O)[C@H]([C@@H](C)CC)NC1=O)C(c1ccccc1)c1ccccc1)[C@@H](C)O` [Compd 49, Butyric_Acid-[Tet1]-T-H-[Dpa]-P-[Cys]-I-[Lys(1PEG2_1PEG2_IsoGlu_C18_Diacid)]-[bhPhe]-[(D)Lys]-[Cys]-NH2]: the IC50 was 10 to 100 nM.
